# Patent US20260101887A1, “AN EMULSIFIABLE CONCENTRATE HAVING A LACTONE-BASED SOLVENT SYSTEM” (priority 2022, published 2026)
# Experiments:
# [1] = solvent in water, visual assessment of undissolved solvent
# Method: Herein, various amounts of solvent and water were mixed with vigorous shaking in a glass-stoppered graduated cylinder or separating funnel, followed by standing for at least 30 min to enable separation. […] This method can be repeated with various amounts of solvent and water to enable the determination of the water-solubility of the solvent.
# Abutilon theophrasti = test: Rate of penetration measured by Fluorescence Index enhancement (PS II inhibitor Na Bentazone into leaf); assay type: in vivo; set-up: scale not given here; conditions: Na B + E + S: 0.64% w/w Na Bentazone, 0.1% emulsifier, 0.9% solvent in CIPAC D water; two 5 μl droplets on leaf, 1 h
# Description: PS II inhibitors effectively block the chlorophyll photosynthetic pathways within the leaf, resulting in enhanced fluorescence from the non-adsorbed incident light. The resulting emitted light can be measured at selected time intervals, enabling the determination of the rate of uptake of the PS II inhibitor and thus penetration effect of the selected adjuvant.
# The following experiments were on the broadleaf weed Abutilon theophrasti (EPPO code ABUTH) at a Biologische Bundesanstalt, Bundessortenamt und Chemische Industrie (BBCH) growth stage 13 to 14.
# The penetration experiments are conducted via the deposition of two droplets (5 μl) of the herbicide/emulsifier/lactone-based solvent formulation onto the leaf surface. The droplets are allowed to stand on the leaf surface for 1 h, after which a fluorescence image of the exposed leaf surface is recorded using the PAM chlorophyll fluorescence imaging system (Imaging PAM, Heinz-Walz GmbH, Germany). The resulting “Total Fluorescence” and “Fluorescence Area” are then quantified via the analysis of the recorded fluorescence image using image analysis software. This enables the calculation of the “Fluorescence Index”:
# The “Fluorescence Index” is a therefore a direct measurement of the penetration of the active ingredient into the plant leaf and can thus be used to measure enhanced penetration via the use of selected adjuvants. Identical experiments are conducted on 7 further leaves using the same formulation to account for biological variability and experimental error.
# Soya plants = test: Phytotoxicity determination on Soya; assay type: in vivo; conditions: 200 L/ha of 1% w/w emulsion (EC 90% w/w solvent, 10% w/w emulsifier); after 14 days; visual scale 0% to 100%
# Method: Soya plants grown under standard greenhouse conditions in the growth stage 13 were treated with aqueous emulsions in a spray cabin. The resulting plant spray dosage represented an application rate of 200 L/ha of 1% w/w emulsion, corresponding to the application of 2 L/ha of the emulsifiable concentrate. […] The experimental period lasted 14 days, during which time the Soya plants were given optimum watering, nutrients, and light.
# An assessment of 1 to 10% phytotoxicity is the limit of acceptable plant damage by farmers.
SMILES,Water solubility [1],Fluorescence Index (Abutilon theophrasti),phytotoxicity (Soya plants)
CCCCCCC1CCC(=O)O1 (centres unmarked) [Gamma-decalactone],0.1 % w/w,14.13,
CCC1CCC(=O)O1 (centres unmarked) [Gamma-hexalactone],8 % w/w,6.11,
CCCCC1OC(=O)CC1C (stereo not drawn) [Beta-methyl-gamma-octalactone],≤0.2 % w/w,,
"CCCC(C)C1OC(=O)CC1C (stereo not drawn) [Beta, delta-dimethyl- gamma-octalactone, Beta,delta-dimethyl-gamma-octalactone]",≤0.2 % w/w,,
CCCCCC1CCCC(=O)O1 (centres unmarked) [Delta-decalactone],0.4 % w/w,9.66,
CCCCCCCC1CCC(=O)O1 (centres unmarked) [Gamma-undecalactone],,11.67,
CCCCCCCCC1CCCC(=O)O1 (centres unmarked) [Delta-tridecalactone],<0.1 % w/w,,
"CCCCCCCCCC(=O)N(C)C [Dimethyl decanamide, reference compound]",,,50%
CCCCCC1CCC(=O)O1 (centres unmarked) [Gamma-nonalactone],0.2 % w/w,16.44,0%
"CCCC(C)C1CCC(=O)O1 (centres unmarked) [Delta-methyl-gamma- octalactone, Delta-methyl-gamma-octalactone]",≤0.2 % w/w,,
CCCCCCCC1CCCC(=O)O1 (centres unmarked) [Delta-dodecalactone],0.07 % w/w,15.21,
CCCCC1CCC(=O)O1 (centres unmarked) [Gamma-octalactone],0.8 % w/w,8.80,
CCCCC1CCCC(=O)O1 (centres unmarked) [Delta-nonalactone],1.2 % w/w,,
CC1CCC(=O)O1 (centres unmarked) [Gamma-valerolactone],100 % w/w,4.85,
CCCCCCCCC1CCC(=O)O1 (centres unmarked) [Gamma-dodecalactone],<0.02 % w/w,,
